The text below walks through data of patent US9062051B2, “Compounds and pharmaceutical compositions thereof for the treatment of proliferative disorders” (GALAPAGOS NV, priority 2014, dated 2015).

By IC50 is commonly meant the concentration needed to halve the response being measured. In general, AUC refers to concentration integrated over time.

Data set [1] concerns the target T1, EphA2 (UniProt Ref: P29317) (Homo sapiens, UniProt P29317).
T1 construct: purchased Reaction Biology
Kind of data set: EphA2 assay (Reaction Biology HotSpot radioactive kinase assay). To be noted: ATP 10 μM; read-out: EphA2 potency IC50. The data set is classed as biochemical. As for the experimental part:
Inhibition of EphA2 (UniProt Ref: P29317) by a test compound is determined by a commercially available Reaction Biology proprietary nanoliter radioactive HotSpot^SM assay (Reaction Biology, One great valley parkway, Suite 2, Malvern Pa., 19355, USA). The principle of the assay consists of the measurement of incorporated ^33P into poly[Glu:Tyr] (4:1) (0.2 mg/mL) when the substrate is phosphorylated by the enzyme using [^33P]-γ-ATP and ATP (10 μM).
To determine the IC50, a serial dilution of compound is tested starting from 10, or 3 μM (highest dilution) with a 1/3 dilution.

The target in data set [2] is T2, EphB4 (UniProt Ref: Q541P7) (Homo sapiens, UniProt P54760).
T2 construct: purchased Reaction Biology
T2 sequence (P54760 16-987): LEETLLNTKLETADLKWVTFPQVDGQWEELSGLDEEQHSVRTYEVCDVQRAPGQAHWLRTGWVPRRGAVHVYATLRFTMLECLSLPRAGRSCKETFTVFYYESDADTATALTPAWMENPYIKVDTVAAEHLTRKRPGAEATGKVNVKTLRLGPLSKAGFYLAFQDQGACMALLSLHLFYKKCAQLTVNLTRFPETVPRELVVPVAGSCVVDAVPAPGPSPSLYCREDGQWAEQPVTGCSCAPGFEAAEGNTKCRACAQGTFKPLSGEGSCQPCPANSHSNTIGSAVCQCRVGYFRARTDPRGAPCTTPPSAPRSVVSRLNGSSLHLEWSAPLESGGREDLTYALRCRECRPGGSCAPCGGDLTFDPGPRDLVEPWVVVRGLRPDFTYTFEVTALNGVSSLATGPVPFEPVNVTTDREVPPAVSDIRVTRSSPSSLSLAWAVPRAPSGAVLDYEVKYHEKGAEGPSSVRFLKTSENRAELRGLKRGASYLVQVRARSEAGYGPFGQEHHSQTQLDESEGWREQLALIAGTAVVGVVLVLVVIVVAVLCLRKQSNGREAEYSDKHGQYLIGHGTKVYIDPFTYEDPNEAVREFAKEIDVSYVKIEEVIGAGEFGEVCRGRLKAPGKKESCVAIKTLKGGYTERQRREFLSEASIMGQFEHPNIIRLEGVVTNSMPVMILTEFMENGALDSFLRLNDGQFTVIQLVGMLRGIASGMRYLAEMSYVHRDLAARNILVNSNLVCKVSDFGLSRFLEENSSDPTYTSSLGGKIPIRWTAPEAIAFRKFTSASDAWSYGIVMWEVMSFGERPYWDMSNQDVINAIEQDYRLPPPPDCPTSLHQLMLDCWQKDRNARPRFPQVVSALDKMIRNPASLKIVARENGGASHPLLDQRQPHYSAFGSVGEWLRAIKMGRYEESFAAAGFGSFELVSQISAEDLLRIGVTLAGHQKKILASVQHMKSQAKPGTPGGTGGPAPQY
Kind of data set: EphB4 assay (Reaction Biology HotSpot radioactive kinase assay). The data set is classed as biochemical. The note with it: ATP 10 μM; read-out: EphB4 potency IC50. As for the experimental part:
Inhibition of EphB4 (UniProt Ref: Q541P7) by a test compound is determined by a commercially available Reaction Biology proprietary nanoliter radioactive HotSpot^SM assay (Reaction Biology, One great valley parkway, Suite 2, Malvern Pa., 19355, USA). The principle of the assay consists of the measurement of incorporated ^33P into poly[Glu:Tyr] (4:1) (0.2 mg/mL) when the substrate is phosphorylated by the enzyme using [^33P]-γ-ATP and ATP (10 μM).
To determine the IC50, a serial dilution of compound is tested starting from 10 or 3 μM (highest dilution) with a 1/3 dilution.

Data set [3] concerns the target T3, Recombinant EphB2 (Homo sapiens, UniProt P29323).
T3 construct: purchased Carna 08-129
T3 sequence (P29323 19-986 isoform P29323-2 limits assumed): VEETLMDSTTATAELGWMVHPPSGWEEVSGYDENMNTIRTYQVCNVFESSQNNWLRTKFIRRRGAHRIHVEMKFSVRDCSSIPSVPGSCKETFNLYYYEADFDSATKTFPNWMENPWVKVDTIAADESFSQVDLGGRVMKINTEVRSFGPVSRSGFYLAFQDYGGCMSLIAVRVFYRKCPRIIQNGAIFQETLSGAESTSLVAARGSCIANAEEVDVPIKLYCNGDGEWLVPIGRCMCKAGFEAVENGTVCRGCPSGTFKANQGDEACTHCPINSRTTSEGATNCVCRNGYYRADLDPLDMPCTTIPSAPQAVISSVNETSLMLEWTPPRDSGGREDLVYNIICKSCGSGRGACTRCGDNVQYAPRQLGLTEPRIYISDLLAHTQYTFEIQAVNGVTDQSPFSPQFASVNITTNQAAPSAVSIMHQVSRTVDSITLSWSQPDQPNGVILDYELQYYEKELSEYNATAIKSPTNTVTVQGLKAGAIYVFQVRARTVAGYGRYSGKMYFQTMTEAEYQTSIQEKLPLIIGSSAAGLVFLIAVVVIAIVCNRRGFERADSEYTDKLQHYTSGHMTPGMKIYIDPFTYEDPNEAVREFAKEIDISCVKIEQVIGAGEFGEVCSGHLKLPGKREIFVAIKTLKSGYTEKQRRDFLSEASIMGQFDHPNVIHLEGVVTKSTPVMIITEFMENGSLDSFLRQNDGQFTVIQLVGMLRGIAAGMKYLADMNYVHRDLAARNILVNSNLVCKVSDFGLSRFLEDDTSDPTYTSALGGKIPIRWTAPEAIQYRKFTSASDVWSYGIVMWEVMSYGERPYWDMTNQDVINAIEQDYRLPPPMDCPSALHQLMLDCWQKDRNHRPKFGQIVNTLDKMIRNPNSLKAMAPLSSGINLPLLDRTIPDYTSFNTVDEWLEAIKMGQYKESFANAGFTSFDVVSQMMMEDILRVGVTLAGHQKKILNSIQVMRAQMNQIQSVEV
Nature of the data set: EphB2 assay (33P incorporation into poly GT, filter plate). The data set is classed as biochemical. The note with it: read-out: EphB2 potency IC50. As to the method:
The principle of the assay consists of the measurement of incorporated ^33P into the substrate poly GT when phosphorylated by the enzyme EphB2 using [^33P]-γ-ATP and ATP. Unincorporated ^33P is removed by loading the samples on a filter plate (using a harvester, Perkin Elmer) and 6 subsequent washing steps. ^33P incorporated in polyGT is measured on a Topcount after addition of microscint to the filter plates (Perkin Elmer).
Recombinant EphB2 (Carna Cat#08-129, 0.6 ng per well) was incubated with 0.05 mg/mL Poly(Glu,Tyr)sodium salt (4:1), MW 20 000-50 000 (Sigma catalog number P0275) in kinase reaction buffer (10 mM MOPS pH 7.2, 5 mM DTT, 0.01% Triton-X100, 5 mM MnCl2, 0.5 mM Na3VO4, 5 mM beta-glycerolphosphate), 0.5 μM non-radioactive ATP, 0.25 μCi/25 μl ^33P-gamma-ATP (Perkin Elmer, catalog number NEG602K) final concentrations with or without 5 μL containing test compound or vehicle (DMSO, 1% final concentration), in a total volume of 25 μL, in a polypropylene 96-well plate (Greiner, V-bottom). After 45 min at 30° C., reactions were stopped by adding of 25 μL/well of 150 mM phosphoric acid. The experiment was then conducted as described for EphA7. The ability of a test compound to inhibit the kinase activity was determined using counts per minutes (cpm) measured by the Topcount as:
(§1) Cpm (cpd): cpm determined for sample with test compound present
(§2) Cpm (control): cpm determined for sample with positive control inhibitor (10 μM staurosporine)
(§3) Cpm (vehicle): cpm determined in the presence of vehicle (1% DMSO)
Dose dilution series were prepared for the compounds enabling the testing of dose-response effects in the EphB2 assay and the calculation of the IC50 for each compound. Each compound was routinely tested at concentration of 20 μM followed by a 1/5 serial dilution, 10 points in a final concentration of 1% DMSO. When potency of compound series increased, more dilutions may be prepared and/or the top concentration may be lowered (e.g. 5 μM, 1 μM).

Data set [4] can be described thus: Pharmacokinetics in rats (exposure, AUC). The data set is classed as in vivo, male Sprague Dawley rats. To be noted: male, Sprague Dawley, rat, plasma, po, 5 mg/kg. As to the method:
This study is performed with 6 naïve male Sprague Dawley rats (180-200 g, 6-8 weeks old). Rats are obtained from Janvier, Le Genest St Isle, France.
A controlled environment is maintained in the room with optimal conditions of approximately 15 air changes per hour, a temperature of 22±2 C, a relative humidity of 30-70% and a 12 hour light/dark cycle
Pelleted diet for rodents (UAR A04C-10) is used and is provided ad libitum. Before p.o. dosing, the animals are deprived of food for at least 12 hours before compound administration and 4 hours after administration. All animals had free access to tap water.
Two days before the dosing day, the implantation of a catheter in the jugular vein is done under gaseous anaesthesia with isoflurane.
Rats are dosed intravenously with test compound via a bolus in the tail vein with a dose level of 1 mg/kg. […]
The i.v. bolus and the oral administration are given a dose volume of 5 mL/kg.
From all animals approximately 200 μL blood samples are collected via the catheter and placed into tubes containing Li-heparin as anticoagulant. Blood samples are collected at the various time points (i.v.: 0.05, 0.25, 0.5, 1, 3, 5, 8 and 24 hours after dosing; p.o.: 0.25, 0.5, 1, 3, 5, 8 and 24 hours after dosing).
Blood is kept on ice. Within 1 hour after sampling, blood is centrifuged at 5,000 rpm for 10 min at 4° C. Immediately after centrifugation, the resulting plasma samples are collected into polypropylene tubes and are kept frozen at −20° C. pending bioanalysis.
Plasma samples are assayed by LC-MS/MS. Plasma proteins are precipitated with an excess of methanol containing the internal standard and the corresponding supernatant is injected on a C18 column. Analytes are eluted out the HPLC system by increasing the percentage of the organic mobile phase. An API4000 mass spectrometer (AB Sciex™) is used for the detection and quantification.
Pharmacokinetic parameters are calculated by non-compartmental analysis using WinNonlin® software (Pharsight, version 5.2).

Data set [5] addresses T4, Recombinant EphA7 (Homo sapiens, UniProt Q15375).
T4 construct: purchased Carna 08-126
Kind of data set: EphA7 assay (33P incorporation into poly GT, filter plate). The data set is classed as biochemical. The note with it: EphA7 potency; 0.15 μM ATP; read-out: IC50. As for the experimental part:
The principle of the assay consists of the measurement of incorporated ^33P into the substrate poly GT when phosphorylated by the enzyme EphA7 using [^33P]-γ-ATP and ATP. Unincorporated ^33P is removed by loading the samples on a filter plate (using a harvester, Perkin Elmer) and 6 subsequent washing steps. ^33P incorporated in polyGT is measured on a Topcount after addition of microscint to the filter plates (Perkin Elmer).
Recombinant EphA7 (Carna Cat#08-126, 2 ng per well) was incubated with 0.1 mg/mL Poly(Glu,Tyr)sodium salt (4:1), MW 20 000-50 000 (Sigma catalog number P0275) in kinase reaction buffer (10 mM MOPS pH 7.2, 5 mM DTT, 0.01% Triton-X100, 5 mM MnCl2, 0.5 mM Na3VO4, 5 mM beta-glycerolphosphate), 0.15 μM non-radioactive ATP, 0.125 μCi/25 μl ^33P-gamma-ATP (Perkin Elmer, catalog number NEG602K) final concentrations with or without 5 μL containing test compound or vehicle (DMSO, 1% final concentration), in a total volume of 25 μL, in a polypropylene 96-well plate (Greiner, V-bottom). After 90 min at 30° C., reactions were stopped by adding of 25 μL/well of 150 mM phosphoric acid. All of the terminated kinase reaction was transferred to prewashed (75 mM phosphoric acid) 96 well filter plates (Perkin Elmer catalog number 6005177) using a cell harvester (Perkin Elmer). Plates were washed 6 times with 300 μL per well of a 75 mM phosphoric acid solution and the bottom of the plates was sealed. 40 μL/well of Microscint-20 was added, the top of the plates was sealed and readout was performed using the Topcount (Perkin Elmer). The ability of a test compound to inhibit the kinase activity was determined using counts per minutes (cpm) measured by the Topcount as:
as §1, §2, §3
Dose dilution series were prepared for the compounds enabling the testing of dose-response effects in the EphA7 assay and the calculation of the IC50 for each compound. Each compound was routinely tested at concentration of 20 μM followed by a 1/5 serial dilution, 10 points in a final concentration of 1% DMSO. When potency of compound series increased, more dilutions may be prepared and/or the top concentration may be lowered (e.g. 5 μM, 1 μM).

Structures are written as SMILES.

T1 sequence (P29317 24-976): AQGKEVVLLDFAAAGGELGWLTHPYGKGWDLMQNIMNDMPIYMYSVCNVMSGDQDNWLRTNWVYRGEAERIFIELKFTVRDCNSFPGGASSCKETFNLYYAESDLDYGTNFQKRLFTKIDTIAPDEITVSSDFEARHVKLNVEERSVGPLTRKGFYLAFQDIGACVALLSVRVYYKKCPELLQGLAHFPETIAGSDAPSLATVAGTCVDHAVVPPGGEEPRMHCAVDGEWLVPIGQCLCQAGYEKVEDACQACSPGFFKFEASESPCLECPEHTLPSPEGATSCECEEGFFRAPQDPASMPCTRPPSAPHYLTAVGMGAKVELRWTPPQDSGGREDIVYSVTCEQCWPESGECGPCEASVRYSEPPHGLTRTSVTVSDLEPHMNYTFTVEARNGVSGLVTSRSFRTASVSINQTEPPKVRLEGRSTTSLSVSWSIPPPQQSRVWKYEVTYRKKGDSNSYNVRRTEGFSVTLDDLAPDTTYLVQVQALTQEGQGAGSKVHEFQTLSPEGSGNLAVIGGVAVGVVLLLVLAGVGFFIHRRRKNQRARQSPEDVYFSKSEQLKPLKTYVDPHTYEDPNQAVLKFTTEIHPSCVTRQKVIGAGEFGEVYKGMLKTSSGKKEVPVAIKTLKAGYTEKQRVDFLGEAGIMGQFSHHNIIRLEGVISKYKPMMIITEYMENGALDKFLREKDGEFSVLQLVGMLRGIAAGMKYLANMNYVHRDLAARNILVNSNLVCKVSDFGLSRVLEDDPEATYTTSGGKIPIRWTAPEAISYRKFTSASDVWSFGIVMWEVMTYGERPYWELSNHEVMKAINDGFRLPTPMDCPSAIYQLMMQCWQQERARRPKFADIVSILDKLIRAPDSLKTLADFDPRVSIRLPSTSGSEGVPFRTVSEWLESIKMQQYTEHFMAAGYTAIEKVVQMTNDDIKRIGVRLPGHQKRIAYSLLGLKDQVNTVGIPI
T4 sequence (Q15375 579-998 limits assumed): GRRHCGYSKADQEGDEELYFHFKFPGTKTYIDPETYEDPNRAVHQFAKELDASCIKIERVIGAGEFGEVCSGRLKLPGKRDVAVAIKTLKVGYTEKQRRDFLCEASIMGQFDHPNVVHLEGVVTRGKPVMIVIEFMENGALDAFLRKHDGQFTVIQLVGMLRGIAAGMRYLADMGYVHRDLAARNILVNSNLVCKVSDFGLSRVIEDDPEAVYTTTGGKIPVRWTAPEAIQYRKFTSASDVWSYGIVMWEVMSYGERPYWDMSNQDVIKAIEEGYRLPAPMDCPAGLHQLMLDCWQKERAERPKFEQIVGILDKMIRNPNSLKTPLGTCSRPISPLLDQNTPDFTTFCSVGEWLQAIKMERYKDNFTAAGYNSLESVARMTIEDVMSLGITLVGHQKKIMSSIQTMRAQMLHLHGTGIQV

For the compound `Cc1cc(C)cc(C(=O)Nc2ccc(C)c(-c3ccc4c(C(O)CN5CCOCC5)n[nH]c4n3)c2)c1` (stereo not drawn) [Compound 7, N-{3-[3-(1-Hydroxy-2-morpholin-4-yl-ethyl)-1H-pyrazolo[3,4-b]pyridin-6-yl]-4-methyl-phenyl}-3,5-dimethyl-benzamide], the concentration for half-maximal inhibition (IC50) is 25 to 50 nM in data set [1], 0.01 to 25 nM in data set [2] and 0.01 to 25 nM in data set [3].

Take `CCc1n[nH]c2nc(-c3cc(NC(=O)c4cc(OC)cc(OC)c4)ccc3C)ccc12` [Compound 8, N-[3-(3-Ethyl-1H-pyrazolo[3,4-b]pyridin-6-yl)-4-methyl-phenyl]-3,5-dimethoxy-benzamide]: the AUC in data set [4] was 2000 ng·h/mL.

Regarding `COc1cc(OC)cc(C(=O)Nc2ccc(C)c(-c3ccc4c(CO)n[nH]c4n3)c2)c1` [Compound 10, N-[3-(3-Hydroxymethyl-1H-pyrazolo[3,4-b]pyridin-6-yl)-4-methyl-phenyl]-3,5-dimethoxy-benzamide], in data set [1], the IC50 was in the range of 0.01 to 25 nM. Also, the AUC in data set [4] was 274 ng·h/mL.

`Cc1ccc(NC(=O)c2cccc(C(F)(F)F)c2)cc1-c1ccc2c([C@@H](C)O)n[nH]c2n1` [Compound 56, N-{3-[3-((R)-1-Hydroxy-ethyl)-1H-pyrazolo[3,4-b]pyridin-6-yl]-4-methyl-phenyl}-3-trifluoromethyl-benzamide]: the 50% inhibitory concentration (IC50) in data set [1] was 0.01 to 25 nM; in data set [5], over 1000 nM; in data set [3] it was 0.01 to 25 nM.
